Reference: ChEMBL document CHEMBL5154896, “Discovery of a Novel Class of d-Amino Acid Oxidase Inhibitors Using the Schrödinger Computational Platform” (J Med Chem, 2022)

Experiments:
D-amino-acid oxidase [1] = target: T1, D-amino-acid oxidase (Homo sapiens, UniProt P14920); assay: Inhibition of recombinant full length human DAO preincubated with compound for 20 mins measured after 4 hrs by Amplex red and horseradish peroxidase based fluorescence assay
D-amino-acid oxidase [2] = target: T1, D-amino-acid oxidase; assay: Inhibition of full length human DAO transfected in CHO-K1 cells incubated for 30 mins by Amplex red and horseradish peroxidase based fluorescence assay; format: cell-based
D-amino-acid oxidase [3] = target: D-amino-acid oxidase (Mus musculus, UniProt P18894); assay: Inhibition of full length mouse DAO transfected with CHO-K1 cells incubated for 30 mins by Amplex red and horseradish peroxidase based fluorescence assay; format: cell-based
[4] = Apparent permeability across apical to basolateral membrane in MDCK-MDR1 cells by LC-MS/MS analysis; conditions: dog
[5] = Efflux ratio of apparent permeability across basolateral to apical side over apical to basolateral side in MDCK-MDR1 cells; conditions: dog
[6] = Unbound drug concentration in C57Bl/6 mouse brain at 2 mg/kg, po or 0.5 mg/kg,iv by LC-MS-MS analysis; format: ADME, organism-based; conditions: mouse, in vivo, po, 2 mg/kg, BLD = below limit of detection
[7] = Volume of distribution at steady state in C57/BL6 mouse at 2 mg/kg, po or 0.5 mg/kg,iv by LC-MS-MS analysis; format: ADME, organism-based; conditions: in vivo
[8] = Dose normalized AUC in C57/BL6 mouse at 2 mg/kg, po by LC-MS-MS analysis; format: ADME, organism-based; conditions: in vivo
[9] = Oral bioavailability in C57/BL6 mouse at 2 mg/kg by LC-MS-MS analysis; format: ADME, organism-based; conditions: in vivo
[10] = Brain to plasma permeability coefficient, Kp in C57Bl/6 mouse 2 mg/kg, po or 0.5 mg/kg,iv by LC-MS-MS analysis; format: ADME, organism-based; conditions: mouse, brain, po, 2 mg/kg, BLD = below limit of detection
[11] = Unbound drug concentration in C57Bl/6 mouse plasma at 2 mg/kg, po or 0.5 mg/kg,iv by LC-MS-MS analysis; format: ADME, organism-based; conditions: mouse, in vivo, po, 2 mg/kg, BLD = below limit of detection
[12] = Unbound brain-to-plasma concentration ratio in C57Bl/6 mouse at 2 mg/kg, po or 0.5 mg/kg,iv by LC-MS-MS analysis; format: ADME, organism-based; conditions: mouse, brain, po, 2 mg/kg, BLD = below limit of detection

D-amino-acid oxidase (Mus musculus, UniProt P18894), sequence (P18894 whole entry): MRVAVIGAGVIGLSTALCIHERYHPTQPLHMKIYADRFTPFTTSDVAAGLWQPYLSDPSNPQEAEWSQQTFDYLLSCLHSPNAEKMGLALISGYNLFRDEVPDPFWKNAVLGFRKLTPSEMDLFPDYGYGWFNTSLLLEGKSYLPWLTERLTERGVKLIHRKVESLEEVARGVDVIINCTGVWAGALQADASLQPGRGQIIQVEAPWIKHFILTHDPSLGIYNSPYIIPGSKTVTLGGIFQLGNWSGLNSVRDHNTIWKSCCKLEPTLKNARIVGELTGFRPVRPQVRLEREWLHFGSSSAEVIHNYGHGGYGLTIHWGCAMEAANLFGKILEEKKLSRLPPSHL
T1 sequence (P14920 whole entry): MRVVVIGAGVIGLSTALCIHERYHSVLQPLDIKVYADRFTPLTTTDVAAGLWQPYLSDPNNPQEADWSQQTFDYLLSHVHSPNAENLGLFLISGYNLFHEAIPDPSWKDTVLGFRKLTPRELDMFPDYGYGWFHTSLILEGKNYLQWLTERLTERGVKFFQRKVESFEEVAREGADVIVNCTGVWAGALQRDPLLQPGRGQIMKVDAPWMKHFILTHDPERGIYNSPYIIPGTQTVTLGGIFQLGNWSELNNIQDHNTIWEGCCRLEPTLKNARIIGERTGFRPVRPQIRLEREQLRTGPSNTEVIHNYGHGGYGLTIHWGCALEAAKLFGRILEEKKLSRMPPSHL

Compound | IC50 (D-amino-acid oxidase [1]) [µM] | EC50 (D-amino-acid oxidase [2]) [µM] | EC50 (D-amino-acid oxidase [3]) [µM] | also measured
O=c1[nH]cc(CCc2ccc(Cl)cc2)[nH]c1=O | 0.32 |  |  | 
O=c1[nH]cc(CSc2ccc(S(F)(F)(F)(F)F)cc2)[nH]c1=O | 0.08 | 0.71 | 0.79 | 
O=c1[nH]cc([C@@H]2COc3cc(F)ccc3S2)[nH]c1=O | 0.094 | 0.56 | 0.54 | 
N#Cc1ccc2c(c1)OC[C@@H](c1c[nH]c(=O)c(=O)[nH]1)S2 | 0.02 | 0.63 | 0.78 | Papp A→B [4]: 31 nm/s; efflux ratio [5]: 3.1
O=c1[nH]c(=O)n(O)cc1CCc1ccc(Cl)cc1 |  |  |  | Fu [6]: Bld; Papp A→B [4]: 240 nm/s; Vdss [7]: 1.9 L/kg; AUC/dose [8]: 13.6 ng·h/mL; bioavailability [9]: 9%; Kp [10]: Bld; Fu [11]: Bld; K(p,uu,brain) [12]: Bld
N#Cc1cccc(CSc2c[nH]c(=O)c(=O)[nH]2)c1 | 0.44 | 3.8 |  | 
O=c1[nH]cc(C2COc3ccccc3S2)[nH]c1=O (racemic) | 0.406 | 1.76 | 0.72 | 
O=c1[nH]cc(SCc2ccc(C(F)F)cc2)[nH]c1=O | 0.07 | 0.45 | 0.59 | 
O=c1[nH]c(Cl)c(CCc2ccc(C(F)(F)F)cc2)[nH]c1=O | 1.5 | 0.5 |  | 
N#Cc1ccc(SCc2c[nH]c(=O)c(=O)[nH]2)cc1F | 0.046 | 0.44 | 0.97 | 
N#Cc1[nH]c(=O)c(=O)[nH]c1CCc1ccc(C(F)(F)F)cc1 | 0.25 | 0.54 | 0.34 | 
Cc1[nH]c(=O)c(=O)[nH]c1CCc1ccc(C(F)(F)F)cc1 | 3.9 |  |  | Papp A→B [4]: 48 nm/s; efflux ratio [5]: 2.4
CS(=O)(=O)c1ccc2c(c1)OC[C@@H](c1c[nH]c(=O)c(=O)[nH]1)S2 | 0.025 | 0.27 | 1.2 | 
C[C@@]1(c2c[nH]c(=O)c(=O)[nH]2)COc2cc(Cl)ccc2S1 |  |  | 0.1 | 
N#Cc1ccc(CSc2c[nH]c(=O)c(=O)[nH]2)cc1F |  |  | 0.68 | 
COc1ccc(CCc2c[nH]c(=O)c(=O)[nH]2)cc1 | 0.32 |  |  | 
C[C@@]1(c2c[nH]c(=O)c(=O)[nH]2)COc2cc(S(C)(=O)=O)ccc2S1 | 0.051 | 0.39 | 1.5 | 
O=c1[nH]cc(CCc2ccc(-c3cc(O)n[nH]3)c(F)c2)[nH]c1=O | 0.32 | 2.9 | 1.8 | Papp A→B [4]: 210 nm/s; efflux ratio [5]: 0.1
N#Cc1ccc(SCc2c[nH]c(=O)c(=O)[nH]2)cc1Cl |  |  | 0.56 | 
O=c1[nH]cc(C2COc3cc(C(F)(F)F)ccc3S2)[nH]c1=O (stereo not drawn) | 0.025 | 0.29 | 0.43 | 
O=c1[nH]cc(SCc2ccc(C(F)(F)F)nc2)[nH]c1=O | 0.25 | 1.1 | 0.59 | Papp A→B [4]: 24 nm/s; efflux ratio [5]: 0.4
C[C@@]1(c2c[nH]c(=O)c(=O)[nH]2)COc2cc(C#N)ccc2S1 | 0.02 | 0.24 | 0.12 | 
O=c1[nH]cc(CCc2ccccc2Cl)[nH]c1=O | 6.2 |  |  | 
O=c1[nH]cc([C@@H]2COc3cc(Cl)ccc3S2)[nH]c1=O | 0.021 | 0.14 | 0.22 | 

Compound | IC50 (D-amino-acid oxidase [1]) [µM] | EC50 (D-amino-acid oxidase [2]) [µM] | EC50 (D-amino-acid oxidase [3]) [µM] | also measured
N#Cc1ccc(CCc2c[nH]c(=O)c(=O)[nH]2)cc1F | 0.18 | 1.9 |  | Papp A→B [4]: 33 nm/s; efflux ratio [5]: 0.5
O=c1[nH]cc(Cc2ccc(Cl)cc2)[nH]c1=O | 3.3 |  |  | 
O=c1[nH]c(=O)n(O)cc1CCc1ccccc1 |  |  |  | Papp A→B [4]: 150 nm/s
O=c1[nH]cc(SCc2ccc(C(F)(F)F)cc2)[nH]c1=O |  |  | 0.24 | 
O=c1[nH]nc(Cc2ccc(Cl)cc2)cc1O |  |  | 0.0042 | 
O=c1[nH]cc(CSc2cnc3cc(Cl)ccc3c2)[nH]c1=O | 0.087 | 1.1 | 1.4 | 
O=c1[nH]cc(CSc2ccc(Cl)cc2)[nH]c1=O | 0.13 | 0.68 | 0.39 | 
O=c1[nH]cc([C@@H]2COc3cc(C(F)F)ccc3S2)[nH]c1=O |  |  | 0.29 | 
CC1(c2c[nH]c(=O)c(=O)[nH]2)COc2ccccc2S1 (racemic) |  |  | 0.25 | 
Cc1n[nH]c2cc(CCc3c[nH]c(=O)c(=O)[nH]3)ccc12 | 0.64 |  | 4.3 | 
O=c1[nH]cc(SCc2ccc(Cl)cc2)[nH]c1=O | 0.15 | 0.4 | 0.51 | 
C[C@@]1(c2c[nH]c(=O)c(=O)[nH]2)COc2cc(C(F)(F)F)ccc2S1 |  |  | 0.26 | 
N#Cc1ccc(CCc2c[nH]c(=O)c(=O)[nH]2)cc1 | 5.8 | 1.8 | 1.5 | Papp A→B [4]: 30 nm/s; efflux ratio [5]: 0.6
O=c1[nH]cc(SCc2ccc(F)c(F)c2)[nH]c1=O | 0.3 | 0.81 |  | 
O=c1[nH]cc(SCc2ccc(S(F)(F)(F)(F)F)cc2)[nH]c1=O |  |  | 0.5 | 
CS(=O)(=O)c1ccc(CSc2c[nH]c(=O)c(=O)[nH]2)cc1 | 0.09 | 0.44 | 0.54 | 
N#Cc1ccc(CSc2c[nH]c(=O)c(=O)[nH]2)cc1 | 0.043 | 0.25 | 0.31 | 
O=c1[nH]cc(CCc2cccc(Cl)c2)[nH]c1=O | 0.19 | 3.5 |  | Papp A→B [4]: 68 nm/s; efflux ratio [5]: 0.9
O=c1[nH]cc(CCc2ccc3ncccc3c2)[nH]c1=O | 0.58 | 8.4 |  | 
O=c1[nH]cc(CCc2ccccc2)[nH]c1=O | 0.34 |  |  | Papp A→B [4]: 40 nm/s; efflux ratio [5]: 0.4
O=c1[nH]cc(CCc2cc(Cl)cc(Cl)c2)[nH]c1=O | 2.5 |  |  | 
CS(=O)(=O)c1ccc(SCc2c[nH]c(=O)c(=O)[nH]2)cc1 |  |  | 2.3 | 
O=c1[nH]cc(CCc2ccc(OC(F)F)nc2)[nH]c1=O | 0.67 | 8.2 |  | 
